From publication PMC4311985, “Molecular Surveillance of Antiviral Drug Resistance of Influenza A/H3N2 Virus in Singapore, 2009-2013” (PLoS ONE, 2015)

How the values were obtained:
[1] = test system: influenza A/H3N2 NA I222T; settings: cited from earlier work
[2] = test system: influenza A/H3N2 NA R224K; settings: ref [3] of supplement (Nguyen 2012); cited from earlier work
[3] = test system: influenza A/H3N2 NA D151V; settings: ref [4] of supplement (Sheu 2008); cited from earlier work
[4] = test system: influenza A/H3N2 NA D151E; settings: ref [3] of supplement (Nguyen 2012); cited from earlier work
[5] = test system: influenza A/H3N2 NA E119V+I222V; settings: ref [3] of supplement (Nguyen 2012); cited from earlier work
[6] = test system: influenza A/H3N2 NA N294S; settings: ref [3] of supplement (Nguyen 2012); cited from earlier work
[7] = test system: influenza A/H3N2 NA Q226H; settings: ref [2] of supplement (Monto 2006); cited from earlier work
[8] = test system: influenza A/H3N2 NA E119D; settings: ref [3] of supplement (Nguyen 2012); cited from earlier work
[9] = test system: influenza A/H3N2 NA E276D; settings: ref [3] of supplement (Nguyen 2012); cited from earlier work
[10] = test system: influenza A/H3N2 NA E119I; settings: ref [3] of supplement (Nguyen 2012); cited from earlier work
[11] = test system: influenza A/H3N2 NA E41G; settings: ref [2] of supplement (Monto 2006); cited from earlier work
[12] = test system: influenza A/H3N2 NA R292K; settings: ref [3] of supplement (Nguyen 2012); cited from earlier work
[13] = test system: influenza A/H3N2 NA E119V+I222L; settings: ref [3] of supplement (Nguyen 2012); cited from earlier work
[14] = test system: influenza A/H3N2 NA R371K; settings: ref [3] of supplement (Nguyen 2012); cited from earlier work
[15] = test system: influenza A/H3N2 NA E119V; settings: ref [3] of supplement (Nguyen 2012); cited from earlier work
[16] = test system: influenza A/H3N2 NA Q136K; settings: ref [3] of supplement (Nguyen 2012); cited from earlier work
[17] = test system: influenza A/H3N2 NA D151A; settings: ref [4] of supplement (Sheu 2008); cited from earlier work
[18] = molecular target: influenza A/H3N2 NA, D93G single mutation (Influenza A virus (H3N2), UniProt V9SU56, D93G); assay type: biochemical; settings: read-out: mean drug concentration required to inhibit 50% NA activity
[19] = molecular target: influenza A/H3N2 NA, D93G, D251N mutations in combination (Influenza A virus (H3N2), UniProt V9SU56, D251N/D93G); assay type: biochemical; settings: read-out: mean drug concentration required to inhibit 50% NA activity
[20] = molecular target: influenza A/H3N2 NA, D93G, Y155F, D251V mutations in combination (Influenza A virus (H3N2), UniProt V9SU56, D251V/D93G/Y155F); assay type: biochemical; settings: read-out: mean drug concentration required to inhibit 50% NA activity

| Compound | Drug susceptibility by NA inhibition assays (WHO class) [2] | Drug susceptibility by NA inhibition assays (WHO class) [3] | Drug susceptibility by NA inhibition assays (WHO class) [4] | Drug susceptibility by NA inhibition assays (WHO class) [5] | Drug susceptibility by NA inhibition assays (WHO class) [6] | Drug susceptibility by NA inhibition assays (WHO class) [7] | Drug susceptibility by NA inhibition assays (WHO class) [8] | Drug susceptibility by NA inhibition assays (WHO class) [9] | Drug susceptibility by NA inhibition assays (WHO class) [10] | Drug susceptibility by NA inhibition assays (WHO class) [11] | Drug susceptibility by NA inhibition assays (WHO class) [12] | Drug susceptibility by NA inhibition assays (WHO class) [13] | Drug susceptibility by NA inhibition assays (WHO class) [14] | Drug susceptibility by NA inhibition assays (WHO class) [15] | Drug susceptibility by NA inhibition assays (WHO class) [16] | Drug susceptibility by NA inhibition assays (WHO class) [17] | also measured |
| --- | --- | --- | --- | --- | --- | --- | --- | --- | --- | --- | --- | --- | --- | --- | --- | --- | --- |
| CCOC(=O)C1=C[C@@H](OC(CC)CC)[C@H](NC(C)=O)[C@@H](N)C1 [Oseltamivir, oseltamivir] | R (>100-fold increase as resistant (“R”)) | S (<10-fold increase as susceptible (“S”)) | DS (10–100-fold increase as decreased susceptibility (“DS”)) | R (>100-fold increase as resistant (“R”)) | R (>100-fold increase as resistant (“R”)) | DS (10–100-fold increase as decreased susceptibility (“DS”)) | S (<10-fold increase as susceptible (“S”)) | DS (10–100-fold increase as decreased susceptibility (“DS”)) | R (>100-fold increase as resistant (“R”)) | DS (10–100-fold increase as decreased susceptibility (“DS”)) | R (>100-fold increase as resistant (“R”)) | R (>100-fold increase as resistant (“R”)) | DS (10–100-fold increase as decreased susceptibility (“DS”)) | DS/R | S (<10-fold increase as susceptible (“S”)) | S (<10-fold increase as susceptible (“S”)) | increase in IC50 compared to that of the wild-type ([1]; I222T in influenza A/H3N2): 16 fold; Drug susceptibility by NA inhibition assays (WHO class) ([1]; I222T, ref [5] of supplement (Pizzorno 2014)): DS (10–100-fold increase as decreased susceptibility (“DS”)) |
| CCC(CC)[C@H](NC(C)=O)[C@@H]1[C@H](O)[C@@H](C(=O)O)C[C@H]1N=C(N)N [Peramivir, peramivir] |  |  |  | S (<10-fold increase as susceptible (“S”)) | S (<10-fold increase as susceptible (“S”)) |  | S (<10-fold increase as susceptible (“S”)) |  | S (<10-fold increase as susceptible (“S”)) |  | DS/R |  |  | S (<10-fold increase as susceptible (“S”)) |  |  | IC50 fold-change compared to wildtype [5]: 7 fold; IC50 [18]: 0.2 ± 0.1 nM; IC50 fold-change compared to wildtype [6]: 1 fold; IC50 fold-change compared to wildtype [8]: 2 fold; IC50 [19]: 0.4 nM; IC50 [20]: 0.2 ± 0.1 nM; IC50 fold-change compared to wildtype [10]: 3 fold; IC50 fold-change compared to wildtype [12]: 14-719 fold; IC50 fold-change compared to wildtype [15]: 1-3 fold |
| CC(=O)N[C@H]1[C@H]([C@H](O)[C@H](O)CO)OC(C(=O)O)=C[C@@H]1N=C(N)N [Zanamivir, zanamivir] | DS (10–100-fold increase as decreased susceptibility (“DS”)) | DS (10–100-fold increase as decreased susceptibility (“DS”)) | S (<10-fold increase as susceptible (“S”)) | S (<10-fold increase as susceptible (“S”)) | S (<10-fold increase as susceptible (“S”)) | S (<10-fold increase as susceptible (“S”)) | DS (10–100-fold increase as decreased susceptibility (“DS”)) | R (>100-fold increase as resistant (“R”)) | DS (10–100-fold increase as decreased susceptibility (“DS”)) | S (<10-fold increase as susceptible (“S”)) | S/DS/R | S (<10-fold increase as susceptible (“S”)) | DS (10–100-fold increase as decreased susceptibility (“DS”)) | S (<10-fold increase as susceptible (“S”)) | DS (10–100-fold increase as decreased susceptibility (“DS”)) | DS (10–100-fold increase as decreased susceptibility (“DS”)) |  |
